Measured values as given in patent publication US20120322829A1, “USE OF A DIPYRIDYL COMPOUND FOR TREATING ROSACEA” (GALDERMA RESEARCH & DEVELOPMENT, priority 2009, published 2012).

Tests used:
Format in all cases: biochemical
[1] = biological target: MMP-14 (Homo sapiens, UniProt P50281); test: MMP-14 activity; conditions: 10 μM; remaining activity
[2] = biological target: MMP-13 (Homo sapiens, UniProt P45452); test: MMP-13 activity, fluorometric detection of reaction product; conditions: 10 μM; human recombinant protein; remaining activity
Procedure: (§1) The activity of MMPs of MMP-1, MMP-2, MMP-9, MMP-12, MMP-13 and TACE was measured using human recombinant proteins. The activity of MMP-8 was measured in human neutrophiles. After incubation with the corresponding substrate, the reaction product of each MMP was detected by fluorometry. The results are expressed as specific control activity percentages ((specific activity measured/specific control activity)×100) obtained in the presence of the compounds tested.

[3] = biological target: T1, MMP-8 (Homo sapiens, UniProt P22894); test: MMP-8 activity measured in human neutrophiles, fluorometry; conditions: 10 μM, remaining activity
T1 construct: endogenous in cells; host or cells: human neutrophils
T1 sequence (P22894 101-467): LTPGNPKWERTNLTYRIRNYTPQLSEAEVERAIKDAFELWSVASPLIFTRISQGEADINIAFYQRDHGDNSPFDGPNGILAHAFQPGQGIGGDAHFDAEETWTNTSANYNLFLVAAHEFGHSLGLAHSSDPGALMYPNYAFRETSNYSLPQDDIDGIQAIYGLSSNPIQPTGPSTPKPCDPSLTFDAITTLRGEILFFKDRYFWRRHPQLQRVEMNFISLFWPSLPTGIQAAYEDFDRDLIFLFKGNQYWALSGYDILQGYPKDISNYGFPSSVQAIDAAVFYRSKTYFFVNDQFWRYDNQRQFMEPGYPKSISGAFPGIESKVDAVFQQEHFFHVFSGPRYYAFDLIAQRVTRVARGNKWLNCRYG
Procedure: as §1

[4] = biological target: MMP-9 (Homo sapiens, UniProt P14780); test: MMP-9 activity, fluorometric detection of reaction product; conditions: 10 μM; human recombinant protein; remaining activity
Chain of MMP-9 (P14780 94-707): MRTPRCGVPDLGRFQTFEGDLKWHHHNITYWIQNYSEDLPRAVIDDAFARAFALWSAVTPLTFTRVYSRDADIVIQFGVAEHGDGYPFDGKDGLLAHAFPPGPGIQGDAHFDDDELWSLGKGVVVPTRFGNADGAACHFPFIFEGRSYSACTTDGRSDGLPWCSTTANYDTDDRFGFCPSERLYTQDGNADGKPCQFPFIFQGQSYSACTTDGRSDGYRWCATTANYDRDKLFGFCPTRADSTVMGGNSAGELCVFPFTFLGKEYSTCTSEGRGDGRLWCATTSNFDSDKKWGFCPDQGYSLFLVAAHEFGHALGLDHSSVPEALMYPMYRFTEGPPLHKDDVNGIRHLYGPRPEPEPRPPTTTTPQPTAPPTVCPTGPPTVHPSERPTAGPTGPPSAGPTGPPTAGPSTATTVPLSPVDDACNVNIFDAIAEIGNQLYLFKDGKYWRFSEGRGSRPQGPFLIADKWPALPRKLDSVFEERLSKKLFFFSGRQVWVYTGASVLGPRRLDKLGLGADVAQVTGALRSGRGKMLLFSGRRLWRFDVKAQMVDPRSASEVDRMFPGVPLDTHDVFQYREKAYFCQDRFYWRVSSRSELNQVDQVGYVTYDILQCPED
Procedure: as §1

[5] = biological target: T2, MMP-2 (Homo sapiens, UniProt P08253); test: MMP-2 activity, fluorometric detection of reaction product; conditions: 10 μM; human recombinant protein; remaining activity
T2 sequence (P08253 110-660): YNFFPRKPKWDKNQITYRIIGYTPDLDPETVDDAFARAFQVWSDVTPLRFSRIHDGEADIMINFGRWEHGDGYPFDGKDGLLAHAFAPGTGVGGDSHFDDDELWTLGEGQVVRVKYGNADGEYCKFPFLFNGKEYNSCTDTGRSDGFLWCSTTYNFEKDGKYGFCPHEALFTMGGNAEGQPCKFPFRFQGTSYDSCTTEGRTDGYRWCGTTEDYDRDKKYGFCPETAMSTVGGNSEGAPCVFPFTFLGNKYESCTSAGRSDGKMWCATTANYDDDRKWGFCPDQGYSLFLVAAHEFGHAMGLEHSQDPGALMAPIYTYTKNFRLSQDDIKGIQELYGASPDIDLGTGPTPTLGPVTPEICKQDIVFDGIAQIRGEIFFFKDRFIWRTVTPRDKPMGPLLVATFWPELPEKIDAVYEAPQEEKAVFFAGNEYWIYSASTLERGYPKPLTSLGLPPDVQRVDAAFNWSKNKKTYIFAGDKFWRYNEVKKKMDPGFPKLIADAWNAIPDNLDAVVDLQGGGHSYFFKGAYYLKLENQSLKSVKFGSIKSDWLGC
Procedure: as §1

[6] = biological target: TACE (TNF-alpha converting enzyme) (Homo sapiens, UniProt P78536); test: TACE activity, fluorometric detection of reaction product; conditions: 10 μM; human recombinant protein; remaining activity
Chain of TACE (TNF-alpha converting enzyme) (P78536 215-824): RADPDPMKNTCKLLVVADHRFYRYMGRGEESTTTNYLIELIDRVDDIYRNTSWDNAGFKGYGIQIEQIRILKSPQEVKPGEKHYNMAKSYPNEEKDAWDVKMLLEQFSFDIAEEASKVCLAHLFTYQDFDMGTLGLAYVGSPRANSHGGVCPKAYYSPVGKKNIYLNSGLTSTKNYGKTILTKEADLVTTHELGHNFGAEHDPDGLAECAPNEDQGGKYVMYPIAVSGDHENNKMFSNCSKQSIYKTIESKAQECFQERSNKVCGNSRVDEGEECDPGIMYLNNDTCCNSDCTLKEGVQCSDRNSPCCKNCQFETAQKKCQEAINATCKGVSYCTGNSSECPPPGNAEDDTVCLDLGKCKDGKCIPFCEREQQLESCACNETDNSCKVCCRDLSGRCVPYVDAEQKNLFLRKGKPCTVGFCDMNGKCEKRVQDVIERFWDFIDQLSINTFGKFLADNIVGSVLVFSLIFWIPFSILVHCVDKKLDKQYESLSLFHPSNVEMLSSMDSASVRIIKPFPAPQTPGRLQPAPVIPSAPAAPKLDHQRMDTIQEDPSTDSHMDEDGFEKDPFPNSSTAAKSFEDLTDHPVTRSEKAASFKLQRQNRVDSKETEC
Procedure: as §1

[7] = biological target: T3, MMP-1 (Homo sapiens, UniProt P03956); test: MMP-1 activity, fluorometric detection of reaction product; conditions: 10 μM; human recombinant protein; remaining activity
T3 sequence (P03956 100-469): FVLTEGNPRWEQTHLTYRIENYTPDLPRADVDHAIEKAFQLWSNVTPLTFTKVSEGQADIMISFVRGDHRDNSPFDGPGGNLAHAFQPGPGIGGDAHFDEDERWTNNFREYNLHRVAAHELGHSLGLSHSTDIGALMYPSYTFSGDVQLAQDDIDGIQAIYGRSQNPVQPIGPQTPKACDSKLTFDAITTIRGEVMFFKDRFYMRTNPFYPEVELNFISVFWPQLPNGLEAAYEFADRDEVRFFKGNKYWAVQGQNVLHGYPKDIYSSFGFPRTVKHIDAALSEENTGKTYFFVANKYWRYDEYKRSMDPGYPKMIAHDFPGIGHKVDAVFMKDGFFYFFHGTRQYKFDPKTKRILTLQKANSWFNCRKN
Procedure: as §1

[8] = biological target: MMP-12 (Homo sapiens, UniProt P39900); test: MMP-12 activity, fluorometric detection of reaction product; conditions: 10 μM; human recombinant protein; remaining activity
Chain of MMP-12 (P39900 106-470): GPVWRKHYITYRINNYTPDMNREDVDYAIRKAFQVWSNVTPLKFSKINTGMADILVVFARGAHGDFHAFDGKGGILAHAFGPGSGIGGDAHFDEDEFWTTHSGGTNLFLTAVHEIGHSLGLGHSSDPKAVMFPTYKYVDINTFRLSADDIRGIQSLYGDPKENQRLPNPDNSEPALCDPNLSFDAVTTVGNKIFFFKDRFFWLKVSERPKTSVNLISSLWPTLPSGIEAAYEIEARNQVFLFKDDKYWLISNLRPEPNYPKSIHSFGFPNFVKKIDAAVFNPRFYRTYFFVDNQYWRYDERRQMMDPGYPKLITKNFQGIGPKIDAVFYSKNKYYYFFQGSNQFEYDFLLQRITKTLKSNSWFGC
Procedure: as §1

Structure (SMILES)	MMP activity (% of control values ± SD), MMP-14 [1]	MMP activity (% of control values ± SD), MMP-13 [2]	MMP activity (% of control values ± SD), MMP-8 [3]	MMP activity (% of control values ± SD), MMP-9 [4]	MMP activity (% of control values ± SD), MMP-2 [5]	MMP activity (% of control values ± SD), TACE [6]	MMP activity (% of control values ± SD), MMP-1 [7]	MMP activity (% of control values ± SD), MMP-12 [8]
Cc1ccnc(-c2cc(C)ccn2)c1 [4,4′-dimethyl-2,2′-dipyridyl]	90.8 ± 4.7 % of control values	90.0 ± 4.1 % of control values	86.5 ± 7.4 % of control values	88.5 ± 3.4 % of control values	100.8 ± 6.0 % of control values	106.4 ± 1.2 % of control values	94.3 ± 0.1 % of control values	96.3 ± 1.0 % of control values
Cc1ccc(-c2ccc(C)cn2)nc1 [5,5′-dimethyl-2,2′-dipyridyl]	90.2 ± 4.1 % of control values	89.4 ± 1.2 % of control values	88.3 ± 6.7 % of control values	86.0 ± 3.4 % of control values	86.4 ± 2.2 % of control values	100.8 ± 2.1 % of control values	96.1 ± 0.3 % of control values	93.4 ± 0.4 % of control values
Cc1cccc(-c2cccc(C)n2)n1 [6,6′-dimethyl-2,2′-dipyridyl]	84.3 ± 3.0 % of control values	96.2 ± 2.6 % of control values	95.0 ± 6.5 % of control values	101.0 ± 3.3 % of control values	95.9 ± 7.5 % of control values	100.3 ± 0.2 % of control values	98.8 ± 0.7 % of control values	96.3 ± 1.0 % of control values
